Measurements published in patent US20210113529A1, “MEDICINE FOR PREVENTING OR TREATING OPHTHALMIC DISEASE ASSOCIATED WITH ENHANCED INTRAOCULAR NEOVASCULARIZATION AND/OR INTRAOCULAR VASCULAR PERMEABILITY” (KYOTO UNIVERSITY, priority 2018, published 2021).

Columns and labels:
[1] = tested on: lymphocytes in the peripheral blood; experiment: Lymphocyte count in peripheral blood, C57BL/6J strain mice; format: in vivo; settings: C57BL/6J mice, 24 hours from final administration
Method: Seven-week-old mice (Japan SLC, Inc., C57BL/6J strain) were repeatedly orally administered Compound 1 suspended in a vehicle (0.5% MC solution) at a dose of 0.003 mg/kg, 0.01 mg/kg, 0.03 mg/kg, 0.1 mg/kg, 0.3 mg/kg, or 1 mg/kg (in terms of free form) once daily for 14 days in the same manner as in Example 1. A control was administered only the vehicle (vehicle group). Experiments were performed using 5 mice in each group. At 24 hours from the final administration, blood was collected from the abdominal vena cava under isoflurane anesthesia using a heparin-treated syringe, and was mixed with ethylenediaminetetraacetic acid dipotassium salt (EDTA.2K) (1 mg). The lymphocyte count in the collected blood was measured using XT-2000iv (Sysmex Corporation).

[2] = tested on: VEGF; experiment: VEGF production in CNV model (western blot of choroid-retinal pigment epithelium); format: in vivo, mice; settings: 0.3 mg/kg orally once daily, 5 days after laser irradiation
Method: A CNV model generated by the same method as in Example 1 was orally administered Compound 1 suspended in a vehicle (0.5% MC solution) at a dose of 0.3 mg/kg (in terms of free form) once daily from the day before laser irradiation to the day of sampling. Controls were an untreated group (normal group) and a group administered only the vehicle (vehicle group). Experiments were performed using 6 mice in the Compound 1 administration group, 8 mice in the normal group, and 7 mice in the vehicle group. After 5 days from the laser irradiation, the mice were euthanized by cervical dislocation, and the eyeball was extirpated. Choroid-retinal pigment epithelium was isolated from the eyeball, and the expression amount of VEGF protein was measured by a western blot method using an anti-VEGF antibody (manufactured by Merck Millipore). In addition, the results of calculation of the expression amount of VEGF relative to that of β-actin with reference to the normal group are shown in FIG. 5(b).

[3] = tested on: human retinal vascular endothelial cells (HRMECs); experiment: Permeability of human retinal vascular endothelial cells (Transwell, FITC-dextran); format: cell-based; settings: HRMECs in Transwell; 0.3 nM, 3 nM or 30 nM; 60 minutes pre-culture, 60 minutes after FITC-dextran (40 kDa)
Method: The upper chamber of Transwell (diameter: 6.5 mm, pore size: 0.4 μm: Corning Incorporated) coated with collagen and fibronectin was seeded with human retinal vascular endothelial cells (HRMECs) (Cell Systems) at a cell density of 5×10^4 cells/well, and the cells were cultured in Endothelial Cell Growth Medium MV 2 (PromoCell GmbH) under a 5% CO2 atmosphere at 37° C. for 6 days. Then, to the upper chamber and lower chamber of the Transwell, Compound 1 at a final concentration of 0 nM, 0.3 nM, 3 nM, or 30 nM, which had been prepared using 0.001% dimethyl sulfoxide-containing Endothelial Cell Growth Medium MV 2 as a vehicle, was added, and culture was continued. A well to which only the vehicle was added was used as a control. After 60 minutes of culture, 1 mg/mL of fluorescein isothiocyanate (FITC)-dextran (40 kDa: Sigma-Aldrich) was added to the upper chamber of the Transwell, and 60 minutes later, the fluorescence intensity of the medium in the lower chamber was measured to measure the amount of FITC-dextran permeating the lower chamber.

[4] = tested on: retinal vein occlusion (RVO) model; experiment: RVO model, intravitreal administration: thickness of INL; format: in vivo, mice; settings: 0.8 ng, 8 ng or 80 ng per eye immediately after laser irradiation, 1 day after irradiation
Method: Eight-week-old mice (Japan SLC, Inc., ddy strain) were anesthetized by intramuscularly administering 10 mL/kg of a mixed anesthetic solution diluted so as to contain ketamine (120 mg/kg) and xylazine (6 mg/kg). After that, 0.15 mL of rose bengal (20 mg/kg; WAKO) was administered into the tail vein, and a vein three head systems away from the optic nerve head of the right eye of the mice was irradiated with a laser to occlude a retinal vein. For the occlusion, the laser irradiation was performed 10 times to 15 times per vein. For the laser irradiation, an attachment of a fundus photography apparatus Micron 4 (Phoenix Research Laboratories, Inc., Pleasanton, Calif., USA) was used (wavelength: 532 nm, spot size: 50 μm, irradiation time: 5,000 ms, laser output: 50 mW). Three veins were occluded per eye, and it was confirmed with photographs of the fundus that the laser-irradiated veins had been completely occluded. […]
After 1 day from the laser irradiation, the mice were euthanized by cervical dislocation, the eyeball was extirpated, and histological evaluation was performed by a hematoxylin-eosin staining method. In addition, the thickness of the retinal inner nuclear layer (INL) was measured at intervals of 240 μm on both sides, i.e., ear side and nose side from the center of the optic nerve head. […]

[5] = target: S1P5 receptor (Homo sapiens, UniProt Q9H228); settings: GTP[γ35S] binding assay; report PLoS One, 2014, 9(10), e110819; read-out: EC50 for S1P5 receptor agonist activity; cited from earlier work
S1P5 receptor, sequence (Q9H228 whole entry): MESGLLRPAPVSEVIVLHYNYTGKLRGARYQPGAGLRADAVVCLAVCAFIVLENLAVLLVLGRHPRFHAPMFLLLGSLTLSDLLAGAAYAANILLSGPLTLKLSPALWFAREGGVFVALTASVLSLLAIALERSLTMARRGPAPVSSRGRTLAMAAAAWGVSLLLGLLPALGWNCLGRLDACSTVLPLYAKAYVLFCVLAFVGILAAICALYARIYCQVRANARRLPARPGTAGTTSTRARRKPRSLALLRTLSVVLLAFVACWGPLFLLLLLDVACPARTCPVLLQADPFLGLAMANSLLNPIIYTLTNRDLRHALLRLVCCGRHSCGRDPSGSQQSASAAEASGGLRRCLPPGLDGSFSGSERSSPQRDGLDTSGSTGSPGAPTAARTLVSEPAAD

## C[C@H](Oc1ccc(-c2nc(-c3ccc4[nH]cnc4c3)no2)cc1C(F)(F)F)C(F)(F)F.Cl [Compound 1, 5-{5-[3-(trifluoromethyl)-4-{[(2S)-1,1,1-trifluoropropan-2-yl]oxy}phenyl]-1,2,4-oxadiazol-3-yl}-1H-benzimidazole monohydrochloride]
[1]; 0.03 mg/kg orally once daily for 14 days
  lymphocytes in the peripheral blood: not found to have a significant action
[1]; 0.1 mg/kg or more orally once daily for 14 days
  lymphocytes in the peripheral blood: significantly decreased lymphocytes in the peripheral blood
[2]
  expression of VEGF relative to β-actin, as compared to the vehicle group: significantly reduced the expression of VEGF
[3]
  amount of FITC-dextran permeating the lower chamber (fluorescence intensity): significantly decreased the amount of FITC-dextran permeating the lower chamber
[4]
  thickening of the INL (retinal edema): ameliorated the thickening of the INL
[5]
  EC50: 7.5 nM
